Results on 15 compounds are retold here after US20230365617A1, “SAPONIN DERIVATIVES FOR USE IN MEDICINE” (priority 2020, published 2023).

Data set [1] deals with A431 cells (EGFR expressing). In words: Cell viability, saponin titration with or without […] EGFdianthin. The class given is cell-based, human.
For data set [2], the system named is HeLa cells. The data set can be described thus: Pilot cell killing bioassay, saponin with or without 1.5 pM dianthin-EGF, 72 h. Further details: key: Cell killing activity (+ or -); Cell killing activity (+ or -). The class given is cell-based, human. As for the experimental part: HeLa cells were incubated for 72 h with the following constructs and cell viability before and after the 72 h-incubation was assessed. In the experiments, cells were exposed to 1.5 pM dianthin-EGF conjugate. A negative control were cells incubated with buffer vehicle and 10 microgram/ml saponin, without dianthin-EGF. Cell viability was set to 100% for the control in which both saponin and EGF-dianthin were omitted. […] Cell viability after 72 h was essentially 0%. For the chemically modified saponin variants, 10 microgram/ml saponin was tested in combination with 1.5 pM dianthin-EGF.

Data set [3] can be described thus: in vitro. The class given is cell-based, human. The conditions noted are these: human red blood cells; read-out: IC50 hemolytic activity. How it is done: (§1) Cells were pelleted by centrifugation for 10 min, 800xg at RT.
Data set [4] concerns human red blood cells. The data set can be described thus: cells. The class given is cell-based. The conditions noted are these: Erythrocyte. As for the experimental part:
as §1

The subject of data set [5] is HeLa cells. In words: cells. The class given is cell-based, human. How it is done:
(§2) (FIGS. 66A and 66B). Next toxicity was determined, for this the modified saponins were titrated on HeLa and A431 cells. […] Next toxicity was determined, for this the modified saponins were titrated on HeLa and A431 cells.

The subject of data set [6] is A431 cells. The data set can be described thus: cells. The class given is cell-based. The conditions noted are these: Homo sapiens, A-431, saponin alone, read-out: IC50 toxicity on A431 cells. How it is done: as §2
In data set [7] the test system is A2058 cells (EGFR non-expressing). The data set can be described thus: Cell viability, saponin titration with or without […] EGFdianthin. The class given is cell-based, human. To be noted: saponin as single compound.
Data set [8] in a line: Critical micellar concentration (CMC) by ANS fluorescence. The class given is physicochemical. The conditions noted are these: for CMC compared with the corresponding native/underivatised saponin: qualitative. How it is done: The critical micellar concentration (CMC) of saponins derived from Saponaria officinalis (SO) (Table A7) and derived from Quillaja saponaria (QS) (Table A8, and Table A9) was determined by the method of DeVendittis et al. (A fluorimetric method for the estimation of the critical micelle concentration of surfactants, Analytical Biochemistry, Volume 115, Issue 2, August 1981, Pages 278-286) as follows:
The emission spectrum of 8-Anilinonaphthalene-1-sulfonic acid (ANS) in either purified water (MQ) or PBS (Dulbecco’s PBS +/+) was determined at dry weight concentrations of saponins ranging from 1 to 1400 µM to cover the range below and above the CMC. Above the CMC, the fluorescence yield of ANS increases and the wavelength of maximum emission decreases due to portioning of the fluorescent dye into micelles. Fluorescence yields were recorded on a Fluoroskan Ascent FL (Thermo Scientific) at an excitation wavelength of 355 nm, and an emission wavelength of 460 nm. 6 µg at a concentration of 75.86 µM of ANS were used per sample and measurement.
The critical micellar concentration (CMC) of saponins was determined by the method of DeVendittis et al. (A fluorimetric method for the estimation of the critical micelle concentration of surfactants, Analytical Biochemistry, Volume 115, Issue 2, August 1981, Pages 278-286) as follows: […]

The mark [9] stands for this setting: 10 µg/ml SO1861 or SO1861-derivative alone.
Where [10] appears, read: 10 µg/ml SO1861 or SO1861-derivative + […] EGFdianthin.
The mark [11] stands for this setting: SO saponins, determined in PBS (Table A7).
[12] abbreviates: HeLa cells, saponin alone (Table A5), read-out: IC50 nM (Toxicity).
[13] abbreviates: SO1831 and Aescin, determined in PBS (Table A11).

Like-named read-outs stand apart in the source and are kept apart here.

In the case of `CC(=O)OC1C(C)OC(OC2C(C)OC(OC(=O)C34CCC(C)(C)CC3C3=CCC5C6(C)CCC(OC7OC(C(=O)O)C(O)C(OC8OCC(O)C(O)C8O)C7OC7OC(CO)C(O)C(O)C7O)C(C)(C=NNC(=O)CCOCCOCCOCCOCCN=[N+]=[N-])C6CCC5(C)C3(C)CC4O)C(OC3OC(C)C(OC4OCC(O)C(OC5OC(CO)C(O)C(O)C5O)C4O)C(O)C3O)C2O)C(O)C1OC1OCC(O)C(O)C1O` (stereo not shown), the IC50 in data set [1] (read-out: general toxicity in absence of EGFdianthin, saponin as single compound) was more than 10 µM. Also, in data set [2] (setting [9]), the “Cell killing activity (+ or -)” value is reported as “-”.
With `CC[C@H](C)[C@H](C[C@H](O)CC(=O)OC1C(C)OC(OC(=O)[C@]23CCC(C)(C)CC2C2=CCC4[C@@]5(C)CC[C@H](OC6OC(C(=O)NC(C)(CO)CO)C(O)C(OC7OCC(O)C(O)C7O)C6OC6OC(CO)C(O)C(O)C6O)[C@@](C)(/C=N/NC(=O)CCCCCN6C(=O)C=CC6=O)C5CC[C@@]4(C)[C@]2(C)C[C@H]3O)C(OC2OC(C)C(OC3OCC(O)C(OC4OCC(O)(CO)C4O)C3O)C(O)C2O)C1O)OC(=O)C[C@@H](O)C[C@H](OC1OC(CO)C(O)C1O)[C@@H](C)CC` (stereo partly shown) [QS21-(Ald-EMCH)-(Glu-AMPD)], in data set [3], the HC50 was more than 1 mM. The IC50 was more than 300000 nM in data set [4] (human red blood cells (Table A12, Example 8), read-out: IC50 nM (hemolysis)); more than 300000 nM in data set [4] (human red blood cells, read-out: IC50 hemolytic activity); more than 30000 nM in data set [5] (Homo sapiens, HeLa cells (Table A12, Example 8), read-out: IC50 nM (Toxicity)); more than 30000 nM in data set [5] (Homo sapiens, HeLa, saponin alone, read-out: IC50 toxicity on HeLa cells); more than 30 µM in data set [6].
In the case of `CC[C@H](C)[C@H](C[C@H](O)CC(=O)OC1C(C)OC(OC(=O)[C@]23CCC(C)(C)CC2C2=CCC4[C@@]5(C)CC[C@H](OC6OC(C(=O)O)C(O)C(OC7OCC(O)C(O)C7O)C6OC6OC(CO)C(O)C(O)C6O)[C@@](C)(/C=N/NC(=O)CCCCCN6C(=O)C=CC6=O)C5CC[C@@]4(C)[C@]2(C)C[C@H]3O)C(OC2OC(C)C(OC3OCC(O)C(OC4OCC(O)(CO)C4O)C3O)C(O)C2O)C1O)OC(=O)C[C@@H](O)C[C@H](OC1OC(CO)C(O)C1O)[C@@H](C)CC` (stereo partly shown) [QS21-Ald-EMCH], the IC50 in data set [4] (Homo sapiens, read-out: IC50 hemolytic activity, human red blood cells) is 30000 nM; in data set [5] (Homo sapiens, HeLa, read-out: IC50 nM (Toxicity), HeLa cells (Table A12, Example 8)), more than 30000 nM.
As for `CC(=O)OC1C(C)OC(OC2C(C)OC(OC(=O)[C@]34CCC(C)(C)CC3C3=CCC5[C@@]6(C)CC[C@H](OC7OC(C(=O)O)C(O)C(OC8OCC(O)C(O)C8O)C7OC7OC(CO)C(O)C(O)C7O)[C@@](C)(C=O)C6CC[C@@]5(C)[C@]3(C)C[C@H]4O)C(OC3OC(C)C(OC4OCC(O)C(OC5OC(CO)C(O)C(O)C5O)C4O)C(O)C3O)C2O)C(O)C1OC1OCC(O)C(O)C1O` (stereo partly shown) [SO1861, reference compound], the “general toxicity in absence of EGFdianthin” value in data set [1] (saponin as single compound) and in data set [7] was “strong cell viability reduction” throughout. The results for the “Cell killing activity (+ or -)” value in data set [2] (setting [10]) and in data set [2] (setting [9]) were “+” and “-”, respectively. The CMC in data set [8] (SO1861 saponins) is given as 185 µM; in data set [8] (setting [11]) it was 185 ± 19 µM.
Take `CC(=O)OC1C(C)OC(OC2C(C)OC(OC(=O)C34CCC(C)(C)CC3C3=CCC5C6(C)CCC(OC7OC(C(=O)NC(C)(CO)CO)C(O)C(OC8OCC(O)C(O)C8O)C7OC7OC(CO)C(O)C(O)C7O)C(C)(C=NNC(=O)CCCCCN7C(=O)C=CC7=O)C6CCC5(C)C3(C)CC4O)C(OC3OC(C)C(OC4OCC(O)C(OC5OC(CO)C(O)C(O)C5O)C4O)C(O)C3O)C2O)C(O)C1OC1OCC(O)C(O)C1O` (stereo not shown) [SO1861-(Ald-EMCH)-(Glu-AMPD)]: the “CMC” value in data set [8] (setting [11]) is more than 30 µM. Further, the “CMC compared with the corresponding native/underivatised saponin” value in data set [8] is on record as “lower CMC values”.
Turning to `CC(=O)OC1C(C)OC(OC2C(C)OC(OC(=O)[C@]34CCC(C)(C)CC3C3=CCC5[C@@]6(C)CC[C@H](OC7OC(C(=O)NC(C)(CO)CO)C(O)C(OC8OCC(O)C(O)C8O)C7OC7OC(CO)C(O)C(O)C7O)[C@@](C)(CO)C6CC[C@@]5(C)[C@]3(C)C[C@H]4O)C(OC3OC(C)C(OC4OCC(O)C(OC5OC(CO)C(O)C(O)C5O)C4O)C(O)C3O)C2O)C(O)C1OC1OCC(O)C(O)C1O` (stereo partly shown) [SO1861-(Ald-OH)-(Glu-AMPD)], the “CMC” value in data set [8] (setting [11]) worked out at 50 ± 5 µM. Further, the “CMC compared with the corresponding native/underivatised saponin” value in data set [8] was “lower CMC values”.
For `CC(=O)OC1C(C)OC(OC2C(C)OC(OC(=O)[C@]34CCC(C)(C)CC3C3=CCC5[C@@]6(C)CC[C@H](OC7OC(C(=O)NCCN8C(=O)C=CC8=O)C(O)C(OC8OCC(O)C(O)C8O)C7OC7OC(CO)C(O)C(O)C7O)[C@@](C)(CO)C6CC[C@@]5(C)[C@]3(C)C[C@H]4O)C(OC3OC(C)C(OC4OCC(O)C(OC5OC(CO)C(O)C(O)C5O)C4O)C(O)C3O)C2O)C(O)C1OC1OCC(O)C(O)C1O` (stereo partly shown) [SO1861-(Glu-AEM)-(Ald-OH)] the same measures were 90 ± 10 µM and “lower CMC values”.
As for `CC(=O)OC1C(C)OC(OC2C(C)OC(OC(=O)[C@]34CCC(C)(C)CC3C3=CCC5[C@@]6(C)CC[C@H](OC7OC(C(=O)O)C(O)C(OC8OCC(O)C(O)C8O)C7OC7OC(CO)C(O)C(O)C7O)[C@@](C)(/C=N/NC(=O)CCCCCN7C(=O)C[C@H](SCCO)C7=O)C6CC[C@@]5(C)[C@]3(C)CC4O)C(OC3OC(C)C(OC4OCC(O)C(OC5OC(CO)C(O)C(O)C5O)C4O)C(O)C3O)C2O)C(O)C1OC1OCC(O)C(O)C1O` (stereo partly shown) [SO1861-Ald-EMCH-blocked], the IC50 in data set [5] (setting [12]) was more than 100000 nM. The “CMC” value in data set [8] (setting [11]) was 50 ± 5 µM.
For the compound `CC(=O)OC1C(C)OC(OC2C(C)OC(OC(=O)[C@]34CCC(C)(C)CC3C3=CCC5[C@@]6(C)CC[C@H](OC7OC(C(=O)O)C(O)C(OC8OCC(O)C(O)C8O)C7OC7OC(CO)C(O)C(O)C7O)[C@@](C)(CO)C6CC[C@@]5(C)[C@]3(C)C[C@H]4O)C(OC3OC(C)C(OC4OCC(O)C(OC5OC(CO)C(O)C(O)C5O)C4O)C(O)C3O)C2O)C(O)C1OC1OCC(O)C(O)C1O` (stereo partly shown) [SO1861-Ald-OH], the “CMC” value in data set [8] (setting [11]) came out at 135 ± 14 µM. Moreover, the “CMC compared with the corresponding native/underivatised saponin” value in data set [8] is reported as “higher CMC values”; in data set [8] (listed as 6), “increased CMC”.
On to `CC(=O)OC1C(C)OC(OC2C(C)OC(OC(=O)[C@]34CCC(C)(C)CC3C3=CCC5[C@@]6(C)CC[C@H](OC7OC(C(=O)NCCN8C(=O)C=CC8=O)C(O)C(OC8OCC(O)C(O)C8O)C7OC7OC(CO)C(O)C(O)C7O)[C@@](C)(C=O)C6CC[C@@]5(C)[C@]3(C)C[C@H]4O)C(OC3OC(C)C(OC4OCC(O)C(OC5OC(CO)C(O)C(O)C5O)C4O)C(O)C3O)C2O)C(O)C1OC1OCC(O)C(O)C1O` (stereo partly shown) [SO1861-Glu-AEM], for which the IC50 in data set [5] (setting [12]) was more than 100000 nM. The “CMC” value in data set [8] (setting [11]) is on record as 45 ± 5 µM. Besides, the “CMC compared with the corresponding native/underivatised saponin” value in data set [8] is “lower CMC values”.
As for `CC(=O)OC1C(C)OC(OC2C(C)OC(OC(=O)[C@]34CCC(C)(C)CC3C3=CCC5[C@@]6(C)CC[C@H](OC7OC(C(=O)NC(C)(CO)CO)C(O)C(OC8OCC(O)C(O)C8O)C7OC7OC(CO)C(O)C(O)C7O)[C@@](C)(C=O)C6CC[C@@]5(C)[C@]3(C)C[C@H]4O)C(OC3OC(C)C(OC4OCC(O)C(OC5OC(CO)C(O)C(O)C5O)C4O)C(O)C3O)C2O)C(O)C1OC1OC(C)C(O)C(O)C1O` (stereo partly shown) [SO1861-Glu-AMPD], the “CMC” value in data set [8] (setting [11]) was 50 ± 5 µM. Moreover, the “CMC compared with the corresponding native/underivatised saponin” value in data set [8] is reported as “lower CMC values”.
As to `CC(=O)On1nnc2cccnc21` [SO1861-Glu-HATU], the “Cell killing activity (+ or -)” value is given as “+” in data set [2] (setting [10]) and “-” in data set [2] (setting [9]).
“Aescin [Aescin (95%), reference compound]”: the “CMC” value in data set [8] (setting [13]) was determined as 130 ± 13 µM.
The same measure, in the same setting: under “Aescin [Aescin (98%), reference compound]” stands 135 ± 14 µM.
As to QS21 [reference compound], the CMC came out at 49 µM in data set [8] (QS saponins (Table A8, MQ)); 49 ± 5 µM in data set [8] (QS saponins, determined in purified water (MQ) (Table A8)); 49 ± 5 µM in data set [8] (in MQ (Table A9)); 40 ± 5 µM in data set [8] (modified QS21 saponins, determined in PBS (Table A9)).
